Measurements reported in PubChem BioAssay AID1963854 (Molecular Pharmacology Branch, DTP, NCI, 2024).

Test system: 186277-243-T-J2-PDC complex spheroid viability
Experiment: Anticancer human tumor 186277-243-T-J2-PDC patient-derived colon adenocarcinoma cell line growth inhibition [POLQ]
Settings: for IC50: curve of first compound; for viability, T/C: stronger effect = lower value
Method in brief: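 Three-cell-type spheroids modelling solid tumor plus stroma served as the readout system; POL inhibitors were tested individually and in combination, concentration ranges set by clinical Cmax where known.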
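Also: spheroids exposed to compounds for seven days.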
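For viability, T/C in this document: 100% = DMSO vehicle control viability.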

What does the source list for `CC(=O)O[C@H]1C(=O)[C@@]2(C)[C@H]([C@H](OC(=O)c3ccccc3)[C@]3(O)C[C@H](OC(=O)[C@H](O)[C@@H](NC(=O)c4ccccc4)c4ccccc4)C(C)=C1C3(C)C)[C@]1(OC(C)=O)CO[C@@H]1C[C@@H]2O` + Nc1ccc(C#CCN(C(=O)Cc2ncc(C(F)(F)F)cc2C(F)(F)F)c2ccc(F)cc2)nn1?
IC50 (second compound 0.0316 µM): < 9.49 nM; IC50 (second compound 0.1 µM): < 9.49 nM; IC50 (second compound 0.316 µM): < 9.49 nM; IC50 (second compound 1 µM): < 9.49 nM; IC50 (second compound 3.16 µM): < 9.49 nM; IC50 (second compound 10 µM): < 9.49 nM; viability, T/C (second compound 0.0316 µM, first compound 0.00949 µM): 42.4%; viability, T/C (second compound 0.0316 µM, first compound 0.03 µM): 12.5%; viability, T/C (second compound 0.0316 µM, first compound 0.0949 µM): 7.75%; viability, T/C (second compound 0.0316 µM, first compound 0.3 µM): 6.21%; viability, T/C (second compound 0.0316 µM, first compound 0.949 µM): 5.52%; viability, T/C (second compound 0.0316 µM, first compound 3 µM): 8.14%; viability, T/C (second compound 0.1 µM, first compound 0.00949 µM): 41.4%; viability, T/C (second compound 0.1 µM, first compound 0.03 µM): 10.8%; viability, T/C (second compound 0.1 µM, first compound 0.0949 µM): 7.09%; viability, T/C (second compound 0.1 µM, first compound 0.3 µM): 5.96%; viability, T/C (second compound 0.1 µM, first compound 0.949 µM): 6.1%; viability, T/C (second compound 0.1 µM, first compound 3 µM): 5.64%; viability, T/C (second compound 0.316 µM, first compound 0.00949 µM): 41.7%; viability, T/C (second compound 0.316 µM, first compound 0.03 µM): 11.7%; viability, T/C (second compound 0.316 µM, first compound 0.0949 µM): 7.17%; viability, T/C (second compound 0.316 µM, first compound 0.3 µM): 6.38%; viability, T/C (second compound 0.316 µM, first compound 0.949 µM): 5.86%; viability, T/C (second compound 0.316 µM, first compound 3 µM): 6.59%; viability, T/C (second compound 1 µM, first compound 0.00949 µM): 36.1%; viability, T/C (second compound 1 µM, first compound 0.03 µM): 13.4%; viability, T/C (second compound 1 µM, first compound 0.0949 µM): 6.63%; viability, T/C (second compound 1 µM, first compound 0.3 µM): 5.56%; viability, T/C (second compound 1 µM, first compound 0.949 µM): 6.34%; viability, T/C (second compound 1 µM, first compound 3 µM): 5.24%; viability, T/C (second compound 3.16 µM, first compound 0.00949 µM): 28.4%; viability, T/C (second compound 3.16 µM, first compound 0.03 µM): 10.8%; viability, T/C (second compound 3.16 µM, first compound 0.0949 µM): 7.02%; viability, T/C (second compound 3.16 µM, first compound 0.3 µM): 6.36%; viability, T/C (second compound 3.16 µM, first compound 0.949 µM): 6.4%; viability, T/C (second compound 3.16 µM, first compound 3 µM): 4.96%; viability, T/C (second compound 10 µM, first compound 0.00949 µM): 21.8%; viability, T/C (second compound 10 µM, first compound 0.03 µM): 8.01%; viability, T/C (second compound 10 µM, first compound 0.0949 µM): 6.35%; viability, T/C (second compound 10 µM, first compound 0.3 µM): 5.6%; viability, T/C (second compound 10 µM, first compound 0.949 µM): 7.72%; viability, T/C (second compound 10 µM, first compound 3 µM): 5.68%
